As usually defined, the MIC is the least concentration at which growth counts as inhibited. The term IC50 denotes the concentration that inhibits the measured activity by half. High values mean weaker potency, low ones greater potency.

One assay deals with E. coli. Briefly: Bacterial susceptibility testing, MIC by broth microdilution (CLSI). The assay is classed as cell-based. The note with it: Escherichia coli, read-out: E. coli MIC. How it is done:
(§1) Minimal inhibitory concentrations (MIC) were determined by the broth microdilution method in accordance with the Clinical and Laboratory Standards Institute (CLSI) guidelines. In brief, organism suspensions were adjusted to a 0.5 McFarland standard to yield a final inoculum between 3×10^5 and 7×10^5 colony-forming units (CFU)/mL. Drug dilutions and inocula were made in sterile, cation adjusted Mueller-Hinton Broth (Beckton Dickinson). An inoculum volume of 100 μL was added to wells containing 100 μL of broth with 2-fold serial dilutions of drug. All inoculated microdilution trays were incubated in ambient air at 35° C. for 18-24 h. Following incubation, the lowest concentration of the drug that prevented visible growth (OD600 nm<0.05) was recorded as the MIC. Performance of the assay was monitored by the use of laboratory quality-control strains and levofloxacin, a compound with a defined MIC spectrum, in accordance with CLSI guidelines.

The test system of a further assay is K. pneumoniae. The assay is described as above. The assay is classed as cell-based. To be noted: Klebsiella pneumoniae, read-out: K. pneumoniae MIC. The protocol: as §1
Another assay has as its system S. aureus. The assay is described as above. Format: cell-based. The note with it: Staphylococcus aureus, read-out: S. aureus MIC. The protocol: as §1
Assay [1] concerns TLR-4 activity of A. baumannii culture supernatants. In words: TLR4 assay: TLR4 activity of A. baumannii culture supernatants in HEK-Blue-hTLR4 cells. The assay is classed as cell-based. The note with it: Acinetobacter baumannii, HEK-Blue hTLR4, read-out: % TLR-4 activity. The method, boiled down:
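A. baumannii was grown to mid-log phase with LpxC inhibitors, and culture supernatants were filter-sterilized and diluted 1:1000. Supernatant TLR4 activity was measured in HEK-Blue-hTLR4 cells carrying an NF-kB/AP-1-driven SEAP reporter and reported as % TLR-4 activity.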

A further assay deals with E. coli LpxC (Escherichia coli, UniProt P0A725). In words: LpxC Binding Assay (Rapid Fire MS assay). Format: biochemical.
Sequence of E. coli LpxC (P0A725 whole entry): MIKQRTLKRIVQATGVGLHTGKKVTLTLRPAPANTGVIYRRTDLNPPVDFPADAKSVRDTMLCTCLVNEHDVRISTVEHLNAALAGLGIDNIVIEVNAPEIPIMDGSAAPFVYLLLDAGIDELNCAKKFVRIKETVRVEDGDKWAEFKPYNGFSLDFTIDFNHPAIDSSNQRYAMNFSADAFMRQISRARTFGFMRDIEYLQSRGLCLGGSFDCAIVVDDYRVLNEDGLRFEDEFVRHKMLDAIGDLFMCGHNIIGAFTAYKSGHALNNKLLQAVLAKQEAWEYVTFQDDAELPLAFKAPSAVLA
Where [2] appears, read: broth microdilution, 35° C., 18-24 h.

Values after ≈ are worked out from the molar mass of the structure shown. Read-outs that look alike come from different tables or passages of the source. Bounds are passed on as bounds.

For `O=C(NCC(F)F)C(Cc1ccc(C#Cc2ccc(CN3CCOCC3)cc2)cc1)c1nc[nH]c(=O)c1O` (stereo not shown) [Compound 1, N-(2,2-difluoroethyl)-2-(5-hydroxy-6-oxo-1,6-dihydropyrimidin-4-yl)-3-(4-((4-(morpholinomethyl)phenyl)ethynyl)phenyl) propanamide], the MIC in the assay with E. coli (setting [2]) was under 1 µg/mL; in the assay with K. pneumoniae (setting [2]), 1 to 8 µg/mL (≈ 1.91 to 15.3 µM); with S. aureus (setting [2]), over 32 µg/mL. Besides, in assay [1], the activity at 4 µg/mL is under 20%. Moreover, the activity at 8 µg/mL in assay [1] is under 20%. In addition, the activity at 16 µg/mL in assay [1] is under 20%. In addition, at E. coli LpxC, the IC50 is under 10 nM.

For `O=C(NCC(F)(F)F)C(Cc1ccc(C#Cc2ccc(CN3CCOCC3)cc2)cc1)c1nc[nH]c(=O)c1O` (stereo not shown) [Compound 2, 2-(5-hydroxy-6-oxo-1,6-dihydropyrimidin-4-yl)-3-(4-((4-(morpholinomethyl)phenyl)ethynyl)phenyl)-N-(2,2,2-trifluoroethyl) propanamide], the MIC in the assay with E. coli (setting [2]) is under 1 µg/mL. Also, the MIC with K. pneumoniae (setting [2]) was 1 to 8 µg/mL (≈ 1.85 to 14.8 µM). For the same compound, the MIC in the assay with S. aureus (setting [2]) is over 32 µg/mL. In assay [1], the activity at 4 µg/mL is under 20%, the activity at 8 µg/mL was under 20% and the activity at 16 µg/mL is under 20%. At E. coli LpxC, the IC50 fell in the range of 10 to 50 nM.

As to `O=C(NCCF)C(Cc1ccc(C#Cc2ccc(CN3CCOCC3)cc2)cc1)c1nc[nH]c(=O)c1O` (stereo not shown) [Compound 3, N-(2-fluoroethyl)-2-(5-hydroxy-6-oxo-1,6-dihydropyrimidin-4-yl)-3-(4-((4-(morpholinomethyl)phenyl)ethynyl)phenyl) propanamide], in the assay with E. coli (setting [2]), the MIC is under 1 µg/mL. Also, the MIC with K. pneumoniae (setting [2]) lay in the range of 1 to 8 µg/mL (≈ 1.98 to 15.9 µM). The MIC with S. aureus (setting [2]) was over 32 µg/mL. In assay [1], the activity at 4 µg/mL was 50 to 80%, the activity at 8 µg/mL fell in the range of 20 to 50% and the activity at 16 µg/mL fell in the range of 20 to 50%. Besides, the IC50 at E. coli LpxC lay within 10 to 50 nM.

Regarding `O=C(CF)NCC(Cc1ccc(C#Cc2ccc(CN3CCOCC3)cc2)cc1)c1nc[nH]c(=O)c1O` (stereo not shown) [Compound 12, 2-fluoro-N-(2-(5-hydroxy-6-oxo-1,6-dihydropyrimidin-4-yl)-3-(4-((4-(morpholinomethyl)phenyl)ethynyl)phenyl)propyl) acetamide], the MIC with E. coli was under 1 µg/mL; in the assay with K. pneumoniae, 1 to 8 µg/mL (≈ 1.98 to 15.9 µM); in the assay with S. aureus it was over 32 µg/mL. The same compound displayed an IC50 on E. coli LpxC of 10 to 50 nM.

Take `O=C(NCC(Cc1ccc(C#Cc2ccc(CN3CCOCC3)cc2)cc1)c1nc[nH]c(=O)c1O)C(F)F` (stereo not shown) [Compound 15, 2,2-difluoro-N-(2-(5-hydroxy-6-oxo-1,6-dihydropyrimidin-4-yl)-3-(4-((4-(morpholinomethyl)phenyl)ethynyl)phenyl)propyl)acetamide]: the MIC in the assay with E. coli (setting [2]) was under 1 µg/mL. Moreover, the MIC in the assay with K. pneumoniae (setting [2]) was 1 to 8 µg/mL (≈ 1.91 to 15.3 µM). In addition, the MIC in the assay with S. aureus (setting [2]) is over 32 µg/mL. Also, in assay [1], the activity at 4 µg/mL is 50 to 80%, the activity at 8 µg/mL lay within 50 to 80% and the activity at 16 µg/mL is under 20%. The compound also gave an IC50 at E. coli LpxC of 10 to 50 nM.

`O=c1[nH]cnc(C(CNCCF)Cc2ccc(C#Cc3ccc(CN4CC5CCC(C4)O5)cc3)cc2)c1O` (stereo not shown) [Compound 215, 6-(1-(4-((4-((8-oxa-3-azabicyclo[3.2.1]octan-3-yl)methyl)phenyl)ethynyl)phenyl)-3-((2-fluoroethyl)amino)propan-2-yl)-5-hydroxypyrimidin-4(3H)-one]: in assay [1], the activity at 4 µg/mL was 20 to 50%, the activity at 8 µg/mL lay in the range of 20 to 50% and the activity at 16 µg/mL was under 20%. On E. coli LpxC, the IC50 lay within 100 to 1000 nM.

Turning to `O=c1[nH]cnc(CCc2ccc(C#Cc3ccc(CNC4CCOCC4)cc3)cc2)c1O` [Compound 244, 5-hydroxy-6-(4-((4-(((tetrahydro-2H-pyran-4-yl)amino)methyl)phenyl)ethynyl)phenethyl)pyrimidin-4(3H)-one], the results for the MIC in the assay with E. coli (setting [2]), in the assay with K. pneumoniae (setting [2]) and in the assay with S. aureus (setting [2]) were under 1 µg/mL, under 1 µg/mL and over 32 µg/mL, respectively. On E. coli LpxC, this compound registered an IC50 of 100 to 1000 nM.

For the compound `O=c1[nH]cnc(CCc2ccc(C#Cc3cccc(Cl)c3)cc2)c1O` [Compound 248, 6-(4-((3-chlorophenyl)ethynyl)phenethyl)-5-hydroxypyrimidin-4(3H)-one], the MIC in the assay on E. coli (setting [2]) and in the assay on K. pneumoniae (setting [2]) was over 32 µg/mL throughout. At E. coli LpxC, this compound showed an IC50 of 100 to 1000 nM.

On to `O=c1[nH]cnc(C(CNCc2cccnc2)Cc2ccc(C#Cc3ccc(CN4CCOCC4)cc3)cc2)c1O` (stereo not shown) [Compound 250, 5-hydroxy-6-(1-(4-((4-(morpholinomethyl)phenyl)ethynyl)phenyl)-3-((pyridin-3-ylmethyl)amino)propan-2-yl)pyrimidin-4(3H)-one], for which the MIC in the assay on E. coli (setting [2]) is under 1 µg/mL; in the assay on K. pneumoniae (setting [2]), over 32 µg/mL. At E. coli LpxC, this compound yielded an IC50 of under 10 nM.

These data come from patent US20200095236A1, “ANTIBACTERIAL COMPOUNDS” (FORGE THERAPEUTICS, INC., priority 2017, published 2020).
